The numbers were not newly measured in PMC11062899, “De novo development of small cyclic peptides that are orally bioavailable” (Nature Chemical Biology, 2023), which cites them from elsewhere.

Details of the data set: method as in PMID 19696042. Particulars: cited from earlier work.

On to `CCCCCCOC(=O)NC(=N)c1ccc(NCc2nc3cc(C(=O)N(CCC(=O)OCC)c4ccccn4)ccc3n2C)cc1` [dabigatran etexilate], for which the oral availability is 6.5%.
